This passage reports IC50 results from ChEMBL document CHEMBL5257071, “Total Synthesis and Biological Evaluation of the Anti-Inflammatory (13R,14S,15R)-13-Hydroxy-14-deoxyoxacyclododecindione” (J Nat Prod, 2023).

SMILES strings stand for the structures.

The target in the experiment is Mothers against decapentaplegic homolog 2/homolog 3 (Homo sapiens, UniProt P84022+Q15796). As to the kind of experiment: Inhibition of TGF-beta induced Smad2/3 signaling in human HepG2 cells harboring pRL-EF1alpha, (CAGA)9x-MLP-Luc plasmid assessed as luciferase activity incubated for 24 hrs by Promega reporter rene assay. In kind it is cell-based.
As for `C/C1=C\CCC(C)(C)C(C)OC(=O)Cc2c(Cl)c(O)cc(O)c2C1=O` (centres undefined), the IC50 (commonly the concentration needed to halve the response being measured) is on record as 30 nM.
With `C/C1=C\C[C@@H](O)[C@H](C)[C@@H](C)OC(=O)Cc2c(Cl)c(O)cc(O)c2C1=O`, the IC50 turned out to be 236 nM.
Turning to `C/C1=C\CC[C@H](C)[C@@H](C)OC(=O)Cc2c(Cl)c(O)cc(O)c2C1=O`, the IC50 was determined as 90 nM.
On to `C/C1=C\CCC(C)(O)C(C)OC(=O)Cc2c(Cl)c(O)cc(O)c2C1=O` (centres undefined), for which the IC50 turned out to be 137 nM.
